Measurements published in patent US20250288590A1, “DRUG SUSTAINED-RELEASE TABLET FOR TREATING LIVER DISEASE, PREPARATION METHOD THEREFOR AND USE THEREOF” (CHANGCHUN INTELLICROWN PHARMACEUTICAL CO., LTD., priority 2022, published 2025).

What was measured:
[1] = rat pharmacokinetic studies, oral administration; assay type: in vivo; settings: rats
[2] = pharmacokinetics in Beagle dogs, oral administration of the compound; assay type: in vivo
[3] = solubility, pH dependence; assay type: physicochemical; settings: mesylate; increasing pH

bioavailability ([1]; rat, blood, oral): 96.3% | half-life ([1]; rat, blood, oral administration, read-out: elimination half-life (converted)): ~1.8 h | peak blood concentration (time) ([1]; oral administration): 0.5 h | half-life ([2]; dog, blood, Beagle dogs, read-out: elimination half-life (converted)): ~3.5 h | time to peak blood concentration (Tmax) ([2]; dogs): 0.5 h
SMILES: COC(=O)c1cc(OC)c2c(c1-c1c(CN3CCOCC3)cc(OC)c3c1OCO3)OCO2 [IMM-H014, methyl 7,7′-dimethoxy-5′-(morpholinomethyl)-[4,4′-bibenzo[d][1,3]dioxole]-5-carboxylate]
solubility (pH-dependent) [3]: as the pH increases, the solubility gradually decreases
